According to patent US7319098B2, “1,3-dioxoisoindole derivatives having selective antagonism of T-type calcium channel” (Korea Institute of Science and Technology, priority 2006, dated 2008):

Molecular target: T1, α1G T-type Ca2+ channels (Homo sapiens, UniProt O43497)
T1 construct: expressed in transfected cells; host or cells: HEK293 cells stably expressing α1G and Kir2.1
Assay: Screening of activity against T-type calcium channel with FDSS6000 (fluorescence, KCl-induced [Ca2+]i increase)
Assay type: cell-based
Conditions: HEK293 cells expressing α1G and Kir2.1, read-out: Inhibitory effect (%) of T-type calcium channel, Inhibition (%); for inhibition at 10 µM: NA: Not Active
Experimental: Meanwhile, the antagonistic activity of the novel compound of Formula (1) herein against T-type calcium channel was tested as described below. The synthesized compounds were tested for the activity against T-type calcium channel with FDSS6000. Compounds with good activity were selected and IC50 values were exactly obtained by using electrophysiological whole cell patch clamp method. HEK293 cells which stably express both α1G and Kir2.1 subunits were grown in Dulbecco's modified Eagle's medium supplemented with 10% (v/v) fetal bovine serum, penicillin (100 U/mL), streptomycin (100 μg/mL), geneticin (500 μg/mL), and +puromycin (I μg/mL) at 37° C. in a humid atmosphere of 5% CO2 and 95% air. Cells were seeded into 96-well black wall clear bottom plates at a density of 4×10^4 cells/well and were used the next day for high-throughput screening (HTS) FDSS6000 assay. For FDSS6000 assay, cells were incubated for 60 min at room temperature with 5 μM fluo3/AM and 0.001% Pluronic F-127 in a HEPES-buffered solution composed of (in mM): 115 NaCl, 5.4 KCl, 0.8 MgCl2, 1.8 CaCl2, 20 HEPES, 13.8 glucose (pH 7.4). During the fluorescence-based FDSS6000 assay, cells in HEPES-buffered solution containing 10 mM CaCl2 were pretreated with a certain concentration of test compounds and then treated with high concentration of KCl ([…]). α1G T-type Ca^2+ channels were activated by using high concentration of KCl (70 mM) and the increase in [Ca^2+]i by KCl-induced depolarization was detected. During the whole procedure, cells were washed using the BIO-TEK 96-well washer. All data were collected and analyzed using FDSS6000 and related software (Hamamatsu, Japan). The IC50 results of examining the inhibitory effects of the compounds herein selected with FDSS6000 on the calcium influx through the T-type calcium channel are provided in TABLEs 1 and 2.

T1 sequence (O43497 whole entry): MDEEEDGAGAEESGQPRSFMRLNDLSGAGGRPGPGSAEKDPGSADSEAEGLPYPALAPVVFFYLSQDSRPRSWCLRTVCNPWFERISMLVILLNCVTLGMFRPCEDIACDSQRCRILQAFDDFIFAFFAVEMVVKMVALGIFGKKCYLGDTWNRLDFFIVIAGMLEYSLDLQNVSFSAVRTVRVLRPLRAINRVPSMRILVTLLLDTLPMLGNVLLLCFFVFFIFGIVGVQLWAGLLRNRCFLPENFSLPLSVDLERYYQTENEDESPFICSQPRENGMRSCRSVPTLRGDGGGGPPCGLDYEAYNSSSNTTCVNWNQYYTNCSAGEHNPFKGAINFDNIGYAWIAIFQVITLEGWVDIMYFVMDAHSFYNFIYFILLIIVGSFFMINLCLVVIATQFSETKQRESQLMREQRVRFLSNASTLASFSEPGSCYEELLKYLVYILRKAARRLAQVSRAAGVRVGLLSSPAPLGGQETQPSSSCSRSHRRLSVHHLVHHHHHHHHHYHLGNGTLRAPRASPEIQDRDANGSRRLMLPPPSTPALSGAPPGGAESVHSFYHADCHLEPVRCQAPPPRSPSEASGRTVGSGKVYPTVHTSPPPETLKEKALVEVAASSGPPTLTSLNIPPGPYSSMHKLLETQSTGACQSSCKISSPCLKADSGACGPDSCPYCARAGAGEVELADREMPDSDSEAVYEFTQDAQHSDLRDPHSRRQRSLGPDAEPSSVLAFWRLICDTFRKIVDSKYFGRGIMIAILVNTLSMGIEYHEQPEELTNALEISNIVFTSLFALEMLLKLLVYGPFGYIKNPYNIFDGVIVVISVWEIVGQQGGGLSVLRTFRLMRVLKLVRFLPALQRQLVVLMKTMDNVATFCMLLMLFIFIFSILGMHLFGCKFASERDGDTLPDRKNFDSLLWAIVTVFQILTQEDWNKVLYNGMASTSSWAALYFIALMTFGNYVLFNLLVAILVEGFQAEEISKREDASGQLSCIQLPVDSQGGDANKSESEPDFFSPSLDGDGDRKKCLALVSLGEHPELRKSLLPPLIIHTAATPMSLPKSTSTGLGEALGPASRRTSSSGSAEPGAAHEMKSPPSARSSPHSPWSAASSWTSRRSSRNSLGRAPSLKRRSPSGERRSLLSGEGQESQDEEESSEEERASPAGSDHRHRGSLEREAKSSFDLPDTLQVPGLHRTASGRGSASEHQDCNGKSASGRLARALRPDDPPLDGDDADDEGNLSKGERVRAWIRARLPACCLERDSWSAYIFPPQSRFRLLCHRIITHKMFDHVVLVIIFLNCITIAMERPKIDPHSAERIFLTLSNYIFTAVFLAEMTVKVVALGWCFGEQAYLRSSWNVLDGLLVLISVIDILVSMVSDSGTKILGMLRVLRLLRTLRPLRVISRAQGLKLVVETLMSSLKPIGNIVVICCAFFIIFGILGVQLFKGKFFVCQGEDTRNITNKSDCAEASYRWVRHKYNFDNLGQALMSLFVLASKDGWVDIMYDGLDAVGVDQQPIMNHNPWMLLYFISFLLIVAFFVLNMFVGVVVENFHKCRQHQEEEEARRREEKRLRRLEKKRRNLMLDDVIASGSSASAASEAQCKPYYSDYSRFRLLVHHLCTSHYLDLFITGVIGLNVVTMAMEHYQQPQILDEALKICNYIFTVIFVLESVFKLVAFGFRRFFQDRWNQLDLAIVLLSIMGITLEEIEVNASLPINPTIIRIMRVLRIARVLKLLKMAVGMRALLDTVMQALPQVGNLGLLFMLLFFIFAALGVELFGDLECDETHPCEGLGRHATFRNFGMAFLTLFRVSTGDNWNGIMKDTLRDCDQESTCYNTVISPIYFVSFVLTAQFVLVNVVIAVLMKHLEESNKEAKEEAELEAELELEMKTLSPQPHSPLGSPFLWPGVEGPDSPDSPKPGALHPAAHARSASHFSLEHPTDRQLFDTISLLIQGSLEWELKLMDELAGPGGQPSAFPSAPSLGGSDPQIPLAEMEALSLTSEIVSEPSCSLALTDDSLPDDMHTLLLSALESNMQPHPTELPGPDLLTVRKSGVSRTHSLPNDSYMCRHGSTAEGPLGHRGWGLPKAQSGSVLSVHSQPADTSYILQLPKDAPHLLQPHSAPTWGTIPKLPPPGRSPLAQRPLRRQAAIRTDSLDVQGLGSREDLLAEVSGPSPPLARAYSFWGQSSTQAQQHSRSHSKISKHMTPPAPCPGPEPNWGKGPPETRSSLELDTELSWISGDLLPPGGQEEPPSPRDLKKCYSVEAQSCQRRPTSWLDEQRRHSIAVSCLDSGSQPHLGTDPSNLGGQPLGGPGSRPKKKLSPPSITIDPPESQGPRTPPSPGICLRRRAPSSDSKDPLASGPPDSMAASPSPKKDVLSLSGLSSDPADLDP

Compound	inhibition at 100 µM [%]	inhibition at 10 µM [%]
O=C(NCCCN1CCCC1)c1ccc2c(c1)C(=O)N(Cc1cccc(F)c1)C2=O [Compound 64, 1-(3-{[2-(3-fluoro-benzyl)-1,3-dioxo-2,3-dihydro-1H-isoindol-5-carbonyl]-amino}-propyl)-pyrrolidinium chloride]	65.9	
CN1CCN(CCCNC(=O)c2ccc3c(c2)C(=O)N(Cc2cccc(F)c2)C3=O)CC1 [Compound 67, 1-(3-{[2-(3-fluoro-benzyl)-1,3-dioxo-2,3-dihydro-1H-isoindol-5-carbonyl]-amino}-propyl)-4-methyl-1-piperazinium chloride]		2.2
O=C(NCCN1CCCCC1)c1ccc2c(c1)C(=O)N(Cc1ccc(F)cc1)C2=O [Compound 68, 1-(2-{[2-(4-fluoro-benzyl)-1,3-dioxo-2,3-dihydro-1H-isoindol-5-carbonyl]-amino}-ethyl)-piperidinium chloride]	78.2	
O=C(NCCN1CCCC1)c1ccc2c(c1)C(=O)N(Cc1ccc(F)cc1)C2=O [Compound 70, 1-(2-{[2-(4-fluoro-benzyl)-1,3-dioxo-2,3-dihydro-1H-isoindol-5-carbonyl]-amino}-ethyl)-pyrrolidinium chloride]	67.5	
CN1CCN(CCCNC(=O)c2ccc3c(c2)C(=O)N(Cc2ccc(F)cc2)C3=O)CC1 [Compound 74, 1-(3-{[2-(4-fluoro-benzyl)-1,3-dioxo-2,3-dihydro-1H-isoindol-5-carbonyl]-amino}-propyl)-4-methyl-1-piperazinium chloride]		5.6
O=C(NCCN1CCCCC1)c1ccc2c(c1)C(=O)N(Cc1ccccc1Cl)C2=O [Compound 75, 1-(2-{[2-(2-chloro-benzyl)-1,3-dioxo-2,3-dihydro-1H-isoindol-5-carbonyl]-amino}-ethyl)-piperidinium chloride]		33.6
O=C(NCCN1CCCC1)c1ccc2c(c1)C(=O)N(Cc1ccccc1Cl)C2=O [Compound 77, 1-(2-{[2-(2-chloro-benzyl)-1,3-dioxo-2,3-dihydro-1H-isoindol-5-carbonyl]-amino}-ethyl)-pyrrolidinium chloride]		21.5
O=C(NCCCN1CCCC1)c1ccc2c(c1)C(=O)N(Cc1ccccc1Cl)C2=O [Compound 78, 1-(3-{[2-(2-chloro-benzyl)-1,3-dioxo-2,3-dihydro-1H-isoindol-5-carbonyl]-amino}-propyl)-pyrrolidinium chloride]		25.4
O=C(NCCN1CCCC1)c1ccc2c(c1)C(=O)N(Cc1ccc(Cl)cc1)C2=O [Compound 89, 1-(2-{[2-(4-chloro-benzyl)-1,3-dioxo-2,3-dihydro-1H-isoindol-5-carbonyl]-amino}-ethyl)-pyrrolidinium chloride]		29.8
O=C(NCCCN1CCCC1)c1ccc2c(c1)C(=O)N(Cc1ccc(Cl)cc1)C2=O [Compound 90, 1-(3-{[2-(4-chloro-benzyl)-1,3-dioxo-2,3-dihydro-1H-isoindol-5-carbonyl]-amino}-propyl)-pyrrolidinium chloride]		35
Cc1ccccc1CN1C(=O)c2ccc(C(=O)NCCN3CCCC3)cc2C1=O [Compound 95, 1-(2-{[2-(2-methyl-benzyl)-1,3-dioxo-2,3-dihydro-1H-isoindol-5-carbonyl]-amino}-ethyl)-pyrrolidinium chloride]		15.7
Cc1ccccc1CN1C(=O)c2ccc(C(=O)NCCCN3CCCC3)cc2C1=O [Compound 96, 1-(3-{[2-(2-methyl-benzyl)-1,3-dioxo-2,3-dihydro-1H-isoindol-5-carbonyl]-amino}-propyl)-pyrrolidinium chloride]		15.5
Cc1ccccc1CN1C(=O)c2ccc(C(=O)NCCCN3CCOCC3)cc2C1=O [Compound 98, 4-(3-{[2-(2-methyl-benzyl)-1,3-dioxo-2,3-dihydro-1H-isoindol-5-carbonyl]-amino}-propyl)-4-morpholinium chloride]	55.2	
Cc1cccc(CN2C(=O)c3ccc(C(=O)NCCN4CCCC4)cc3C2=O)c1 [Compound 101, 1-(2-{[2-(3-methyl-benzyl)-1,3-dioxo-2,3-dihydro-1H-isoindol-5-carbonyl]-amino}-ethyl)-pyrrolidinium chloride]		27.2
Cc1cccc(CN2C(=O)c3ccc(C(=O)NCCCN4CCCC4)cc3C2=O)c1 [Compound 102, 1-(3-{[2-(3-methyl-benzyl)-1,3-dioxo-2,3-dihydro-1H-isoindol-5-carbonyl]-amino}-propyl)-pyrrolidinium chloride]		24.8

Second part, the molecule after the results:

inhibition at 100 µM [%]	inhibition at 10 µM [%]	Compound
59.8		O=C(NCCN1CCOCC1)c1ccc2c(c1)C(=O)N(Cc1cccc(F)c1)C2=O [Compound 65, 4-(2-{[2-(3-fluoro-benzyl)-1,3-dioxo-2,3-dihydro-1H-isoindol-5-carbonyl]-amino}-ethyl)-4-morpholinium chloride]
59.8		O=C(NCCCN1CCOCC1)c1ccc2c(c1)C(=O)N(Cc1cccc(F)c1)C2=O [Compound 66, 4-(3-{[2-(3-fluoro-benzyl)-1,3-dioxo-2,3-dihydro-1H-isoindol-5-carbonyl]-amino}-propyl)-4-morpholinium chloride]
46.4		O=C(NCCN1CCOCC1)c1ccc2c(c1)C(=O)N(Cc1ccc(F)cc1)C2=O [Compound 72, 4-(2-{[2-(4-fluoro-benzyl)-1,3-dioxo-2,3-dihydro-1H-isoindol-5-carbonyl]-amino}-ethyl)-4-morpholinium chloride]
64.8		O=C(NCCCN1CCOCC1)c1ccc2c(c1)C(=O)N(Cc1ccc(F)cc1)C2=O [Compound 73, 4-(3-{[2-(4-fluoro-benzyl)-1,3-dioxo-2,3-dihydro-1H-isoindol-5-carbonyl]-amino}-propyl)-4-morpholinium chloride]
	15.6	O=C(NCCN1CCOCC1)c1ccc2c(c1)C(=O)N(Cc1ccccc1Cl)C2=O [Compound 79, 4-(2-{[2-(2-chloro-benzyl)-1,3-dioxo-2,3-dihydro-1H-isoindol-5-carbonyl]-amino}-ethyl)-4-morpholinium chloride]
	23.5	O=C(NCCCN1CCOCC1)c1ccc2c(c1)C(=O)N(Cc1ccccc1Cl)C2=O [Compound 80, 4-(3-{[2-(2-chloro-benzyl)-1,3-dioxo-2,3-dihydro-1H-isoindol-5-carbonyl]-amino}-propyl)-4-morpholinium chloride]
	42.9	O=C(NCCN1CCCCC1)c1ccc2c(c1)C(=O)N(Cc1cccc(Cl)c1)C2=O [Compound 81, 1-(2-{[2-(3-chloro-benzyl)-1,3-dioxo-2,3-dihydro-1H-isoindol-5-carbonyl]-amino}-ethyl)-piperidinium chloride]
	28.9	O=C(NCCN1CCCC1)c1ccc2c(c1)C(=O)N(Cc1cccc(Cl)c1)C2=O [Compound 83, 1-(2-{[2-(3-chloro-benzyl)-1,3-dioxo-2,3-dihydro-1H-isoindol-5-carbonyl]-amino}-ethyl)-pyrrolidinium chloride]
	30.4	O=C(NCCCN1CCCC1)c1ccc2c(c1)C(=O)N(Cc1cccc(Cl)c1)C2=O [Compound 84, 1-(3-{[2-(3-chloro-benzyl)-1,3-dioxo-2,3-dihydro-1H-isoindol-5-carbonyl]-amino}-propyl)-pyrrolidinium chloride]
	25.3	O=C(NCCN1CCOCC1)c1ccc2c(c1)C(=O)N(Cc1cccc(Cl)c1)C2=O [Compound 85, 4-(2-{[2-(3-chloro-benzyl)-1,3-dioxo-2,3-dihydro-1H-isoindol-5-carbonyl]-amino}-ethyl)-4-morpholinium chloride]
	27.8	O=C(NCCCN1CCOCC1)c1ccc2c(c1)C(=O)N(Cc1cccc(Cl)c1)C2=O [Compound 86, 4-(3-{[2-(3-chloro-benzyl)-1,3-dioxo-2,3-dihydro-1H-isoindol-5-carbonyl]-amino}-propyl)-4-morpholinium chloride]
	26.1	O=C(NCCN1CCOCC1)c1ccc2c(c1)C(=O)N(Cc1ccc(Cl)cc1)C2=O [Compound 91, 4-(2-{[2-(4-chloro-benzyl)-1,3-dioxo-2,3-dihydro-1H-isoindol-5-carbonyl]-amino}-ethyl)-4-morpholinium chloride]
	29.9	O=C(NCCCN1CCOCC1)c1ccc2c(c1)C(=O)N(Cc1ccc(Cl)cc1)C2=O [Compound 92, 4-(3-{[2-(4-chloro-benzyl)-1,3-dioxo-2,3-dihydro-1H-isoindol-5-carbonyl]-amino}-propyl)-4-morpholinium chloride]
69.8		Cc1ccccc1CN1C(=O)c2ccc(C(=O)NCCN3CCOCC3)cc2C1=O [Compound 97, 4-(2-{[2-(2-methyl-benzyl)-1,3-dioxo-2,3-dihydro-1H-isoindol-5-carbonyl]-amino}-ethyl)-4-morpholinium chloride]
